Experiments:
broccoli = assay: Soil drench growth enhancing effect, broccoli; assay type: in vivo; conditions: for Average Dry Matter Weight / Average Root Length / Average Shoot Height: 4 treatments every 14 days, 14 days after final treatment
Protocol: (§1) Boron-containing compounds/compositions were applied directly to the soil, and the growth of plants was measured. An exemplary embodiment of a benzoxaborole compound includes 5-chlorobenzo[c][1,2]oxaborol-1(3H)-ol, which may be referred to herein as BAG8.
(§2) Eight 2-gallon pots were filled with steamed soil for each of the five treatments listed below:
(§3) 3-4 seeds were planted into each pot at a depth of 1 inch and covered. All seedlings were subjected to 16 hours of daylight at ˜800 μmol/m^2/second (light intensity) provided by cool-white fluorescent lamps. Daytime temperatures were ˜25° C. and were dropped to ˜18° C. at night.
(§4) Solutions were prepared by first dissolving the appropriate amount of benzoxaborole in ethanol or acetone then adding to distilled water. 100 mL of treatment was applied to each pot in a circular motion to evenly coat the surface of the soil. These treatments were applied every 14 days for a total of 4 treatments, including the at-planting treatment. Each pot was monitored, and 50 mL of distilled water was added to each pot when soil was dry.
(§5) Germination and shoot height data were recorded every seven days. 14 days after the final treatment application, plants were carefully removed from each pot and final shoot length, root length, and dry matter weight were recorded.
(§6) This experiment was conducted on red table beet, broccoli, snow pea, turnips, and spring wheat.

snow pea = assay: Soil drench growth enhancing effect, snow pea; assay type: in vivo; conditions: for growth effect compared to untreated control: soil drench; for Average Dry Matter Weight / Average Root Length / Average Shoot Height: 4 treatments every 14 days, 14 days after final treatment
Protocol: as §1, §2, §3, §4, §5, §6

wheat seedlings = assay: Soil drench treatment on wheat seedlings (perlite); assay type: in vivo; conditions: for Mean Root Length: 10 days after germination, measured 10 days following drench
Protocol: (§7) Sample soil drench treatments were prepared by dissolving […], 3.19 mg, or 3.99 mg of BAG8 in 67.5 mL of acetone in separate vials. Each vial was then added to 202.5 mL of water and shaken vigorously to produce a suitable sample for soil drench treatment at rates of 75 g/A, 100 g/A, and 125 g/A, respectively.
(§8) Wheat seeds were sown into pots filled with perlite growth medium and allowed to germinate under normal glass house conditions. 10 days after germination the pots were drenched with the respective BAG8 solutions. 10 days following the drench, root and stem lengths were measured. Analysis of variance was used to examine root length data and means were separated using Fisher's least significant difference at α=0.05.

canola seedlings = assay: Soil drench treatment on canola seedlings (perlite); assay type: in vivo; conditions: for Mean Stem Length: 10 days after germination, measured 10 days following drench
Protocol: as §7
as §8, with “Canola” for “Wheat”, “drench,” for “drench, root and”, “stem” for “root”

soybean seedlings = assay: Soil drench treatment on soybean seedlings (perlite); assay type: in vivo; conditions: for Mean Root Length: 10 days after germination, measured 10 days following drench
Protocol: as §7
as §8, with “Soybean” for “Wheat”, “root” for “root and stem”, “[…]” for “root”

diseased soybeans = assay: Field trial, yield of diseased soybeans; assay type: in vivo, soybean
Protocol: In this example, diseased soybeans having Asian Soybean Rust (Phakopsora pachyrhizi) were treated with BAG8 and Azoxystrobin. Testing was performed to assess the fungicidal effect of the compounds on Asian Soybean Rust and to assess the growth enhancing effects of the compounds on the diseased soybeans.
Soybeans were planted into 6×30 ft plots and replicated four times in a randomized complete block design. Two treatments and an untreated control were tested for efficacy against Asian Soybean Rust (Phakopsora pachyrhizi) and assessed for yield at the conclusion of the growing season. Foliar applications of the two treatments, BAG8 at 0.25 pounds of active ingredient per acre and azoxystrobin at 0.25 pounds of active ingredient per acre, were applied to the plots at two separate times: growth stage R1 (flowering) and growth stage R3 (bean pod formation). Best practices were used consistently across the test plots with regard to field conditions such as fertilization, insect control, weed control, and irrigation. Disease assessments were taken in each plot 28 days after the final foliar fungicide application. At maturity, each plot was harvested using standard harvesting equipment. After shelling, the beans were weighed at 13% moisture and yield calculations extrapolated to bushels per acre.
(§9) Analysis of variance (ANOVA) was used to examine disease severity data and means were separated using Fisher's least significant difference (LSD) method at α=0.05. […]

diseased maize = assay: Field trial, yield of diseased maize; assay type: in vivo
Protocol: In this example, diseased maize having Southern Rust of Maize (Puccinia polysora) was treated with BAG8, Azoxystrobin, and Boscalid. Testing was performed to assess the fungicidal effect of the compounds on Southern Rust of Maize (Puccinia polysora) and to assess the growth enhancing effect of the compounds on the diseased maize.
Maize was planted into 6×30 ft plots and replicated four times in a randomized complete block design. Three treatments and an untreated control were tested for efficacy against Southern Rust of Maize (Puccinia polysora) and assessed for yield at the conclusion of the growing season. Foliar applications of the three treatments, BAG8 at 0.25 pounds of active ingredient per acre, azoxystrobin at 0.25 pounds of active ingredient per acre, and boscalid at 0.24 pounds of active ingredient per acre, were applied to the plots at growth stage V8. Best practices were used consistently across the test plots with regard to field conditions such as fertilization, insect control, weed control, and irrigation. Disease assessments were taken in each plot 28 days after the foliar fungicide application. At maturity, each plot was harvested using standard harvesting equipment. After shelling, the kernels were weighed at 11% moisture and yield calculations extrapolated to bushels per acre.
as §9

[1] = treatment B, 0.12 lb/A soil drench
[2] = treatment C, 0.25 lb/A soil drench
[3] = treatment D, 0.35 lb/A soil drench
[4] = treatment E, 0.60 lb/A soil drench

Structure (SMILES): OB1OCc2cc(Cl)ccc21 [BAG8, 5-chlorobenzo[c][1,2]oxaborol-1(3H)-ol]
- root length and dry matter weight compared with untreated control (broccoli; all rates (0.12-0.60 lb/A), soil drench): longer roots and greater dry matter weight than the untreated control
- treatment effect on average shoot height (broccoli; all rates, soil drench): no treatment effect was present
- Average Dry Matter Weight (broccoli; [1]): 10.70 mg
- Average Root Length (broccoli; [1]): 5.60 cm
- Average Shoot Height (broccoli; [1]): 4.50 cm
- Average Dry Matter Weight (broccoli; [2]): 11.10 mg
- Average Root Length (broccoli; [2]): 5.20 cm
- Average Shoot Height (broccoli; [2]): 4.40 cm
- Average Dry Matter Weight (broccoli; [3]): 11.30 mg
- Average Root Length (broccoli; [3]): 5.30 cm
- Average Shoot Height (broccoli; [3]): 4.90 cm
- Average Dry Matter Weight (broccoli; [4]): 13.00 mg
- Average Root Length (broccoli; [4]): 6.50 cm
- Average Shoot Height (broccoli; [4]): 4.50 cm
- growth effect compared to untreated control (snow pea; 0.25 pounds per acre): increased the shoot height, root length, and dry matter weight
- growth effect compared to untreated control (snow pea; rates other than 0.25 pounds per acre): does not increase average shoot height, average root length, or average dry matter weight
- Average Dry Matter Weight (snow pea; [1]): 102.70 mg
- Average Root Length (snow pea; [1]): 7.10 cm
- Average Shoot Height (snow pea; [1]): 6.90 cm
- Average Dry Matter Weight (snow pea; [2]): 280.10 mg
- Average Root Length (snow pea; [2]): 12.10 cm
- Average Shoot Height (snow pea; [2]): 13.10 cm
- Average Dry Matter Weight (snow pea; [3]): 185.70 mg
- Average Root Length (snow pea; [3]): 8.00 cm
- Average Shoot Height (snow pea; [3]): 9.40 cm
- Average Dry Matter Weight (snow pea; [4]): 130.90 mg
- Average Root Length (snow pea; [4]): 7.90 cm
- Average Shoot Height (snow pea; [4]): 6.50 cm
- increased root length relative to untreated control (wheat seedlings; all tested application rates, soil drench, wheat seedlings): 27-45%
- Mean Root Length (wheat seedlings; soil drench 75 g ai/A): 580.4 mm
- Mean Root Length (wheat seedlings; soil drench 100 g ai/A): 524.2 mm
- Mean Root Length (wheat seedlings; soil drench 125 g ai/A): 507.0 mm
- increased root length (canola seedlings; all tested application rates, soil drench, canola seedlings): 19-65%
- Mean Stem Length (canola seedlings; soil drench 75 g ai/A): 39.2 mm
- Mean Stem Length (canola seedlings; soil drench 100 g ai/A): 33.8 mm
- Mean Stem Length (canola seedlings; soil drench 125 g ai/A): 47.1 mm
- increased root length (soybean seedlings; all tested application rates, soil drench, soybean seedlings (Table 12)): 6-27%
- Mean Root Length (soybean seedlings; soil drench 75 g ai/A): 329.5 mm
- Mean Root Length (soybean seedlings; soil drench 100 g ai/A): 275.8 mm
- Mean Root Length (soybean seedlings; soil drench 125 g ai/A): 309.7 mm
- increased soybean yield (diseased soybeans; 0.25 lb ai/A foliar): 281%
- Yield (diseased soybeans; 0.25 lb ai/A foliar at R1 and R3, harvest at maturity, 13% moisture): 55.6 a bu/A
- increased yield relative to untreated control (diseased maize; 0.25 lb ai/A foliar): 194%
- Yield (diseased maize; 0.25 lb ai/A foliar at V8, harvest at maturity, 11% moisture): 146.2 a bu/A
